Reference: ChEMBL document CHEMBL1201862, “PubChem BioAssay data set” (2004)
Several values for one entry are separate records, joined by “and”; a condition that tells them apart may be missing. Equal values may be shown once.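 Protocol summary: plate cells (96-well), add compound at 5 concentrations, incubate 48 h, interpolate endpoints linearly. GI50: concentration for 50% inhibition of growth.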 Activity calls are given as the source filed them. No stated cut-off is given here; in the data, active = GI50 up to about 1.1 µM and inactive = higher. Peptide text beside a SMILES is read from it. * marks the point of attachment. Cbz = O=C(OCc1ccccc1)*; NHNH2 = NN*

What was measured:
Experiment in all cases: inhibition of tumour cell growth, NCI panel, 48 h
SW-620 = system: SW-620
OVCAR-5 = system: OVCAR-5
ACHN = system: ACHN
UACC-62 = system: UACC-62
PC-3 = system: PC-3
SK-MEL-28 = system: SK-MEL-28
NCI-H460 = system: NCI-H460
LOX IMVI = system: LOX IMVI
SK-OV-3 = system: SK-OV-3
SF-268 = system: SF-268
K562 = system: K562
NCI-H522 = system: NCI-H522
SNB-75 = system: SNB-75
RXF 393 = system: RXF 393
IGROV-1 = system: IGROV-1
MDA-MB-231 = system: MDA-MB-231
CAKI-1 = system: CAKI-1
HCC 2998 = system: HCC 2998
NCI/ADR-RES = system: NCI/ADR-RES

Measured: GI50

Cc1ccc(S(=O)(=O)NC(=O)NCCC(=O)O)cc1
inactive: SW-620 > 100 µM | OVCAR-5 > 100 µM | ACHN > 100 µM | UACC-62 > 100 µM | PC-3 > 100 µM | SK-MEL-28 > 100 µM | NCI-H460 > 100 µM | LOX IMVI > 100 µM | SK-OV-3 > 100 µM | SF-268 > 100 µM | K562 > 100 µM | NCI-H522 > 100 µM | SNB-75 > 100 µM | RXF 393 > 100 µM | IGROV-1 > 100 µM | MDA-MB-231 > 100 µM

CN(C)CCSc1nccc(-c2cc3ccccc3s2)n1
inactive: SW-620 19 µM | OVCAR-5 27.2 µM | UACC-62 20.4 µM | CAKI-1 25.8 µM | SK-MEL-28 20 µM | HCC 2998 15.7 µM | NCI-H460 13.8 µM | LOX IMVI 17.1 µM | SK-OV-3 37.3 µM | NCI-H522 20.1 µM | SNB-75 54 µM | RXF 393 18.5 µM | IGROV-1 42.3 µM

COc1cc(-c2c(C(C)=O)c(-c3ccccc3)n(C3OC(COC(C)=O)C(OC(C)=O)C(OC(C)=O)C3OC(C)=O)c(=S)c2C#N)ccc1O (stereo unspecified)
inactive: SW-620 > 100 µM | OVCAR-5 > 100 µM | ACHN 55.3 µM | UACC-62 59.2 µM | PC-3 46.8 µM and 65.6 µM | CAKI-1 > 100 µM | SK-MEL-28 > 100 µM | NCI-H460 75.5 µM | NCI/ADR-RES > 100 µM | LOX IMVI > 100 µM and 66.5 µM | SF-268 > 100 µM | K562 > 100 µM | RXF 393 > 100 µM and 78.5 µM

O=C1C(O)=C(C(CCc2ccccc2)C2=C(O)C(=O)c3ccccc3C2=O)C(=O)c2ccccc21
inactive: SW-620 47.5 µM | OVCAR-5 > 100 µM | ACHN 65.9 µM | UACC-62 13.7 µM | PC-3 68.7 µM | CAKI-1 > 100 µM | SK-MEL-28 > 100 µM | NCI-H460 3.61 µM | NCI/ADR-RES > 100 µM | LOX IMVI 5.26 µM | SK-OV-3 > 100 µM | SF-268 92.9 µM | NCI-H522 23.8 µM | SNB-75 45.8 µM | RXF 393 > 100 µM | IGROV-1 34.6 µM | MDA-MB-231 66.8 µM

C[C@]12CC[C@H]3[C@@H](CC=C4C[C@@H](O)CC[C@@]43C)[C@@H]1C/C(=C\c1cccnc1)[C@@H]2O
inactive: SW-620 89.9 µM | OVCAR-5 41.4 µM | ACHN 5.82 µM | UACC-62 7.96 µM | PC-3 30.7 µM | SK-MEL-28 32.1 µM | NCI-H460 31.6 µM | NCI/ADR-RES 11.8 µM | LOX IMVI 1.28 µM | SK-OV-3 10.8 µM | NCI-H522 12.6 µM | RXF 393 15 µM | IGROV-1 24.7 µM | MDA-MB-231 13.2 µM

COc1cc(C2C(Cl)C(=O)N2c2c(C)n(C)n(-c3ccccc3)c2=O)ccc1O (stereo unspecified)
inactive: SW-620 15 µM | OVCAR-5 21.5 µM | ACHN 20.1 µM | UACC-62 16 µM | PC-3 28.8 µM | CAKI-1 33.6 µM | NCI-H460 23.6 µM | NCI/ADR-RES 30.3 µM | LOX IMVI 16.5 µM | SK-OV-3 29.6 µM | SF-268 24.9 µM | K562 26.6 µM | NCI-H522 13.6 µM | RXF 393 18.1 µM | IGROV-1 14.1 µM | MDA-MB-231 22.1 µM

[N-]=[N+]=NC12CC3C4CC5CC3C(C1)C(C5)C4C2
inactive: SW-620 > 100 µM | OVCAR-5 > 100 µM | ACHN > 100 µM | UACC-62 > 100 µM | CAKI-1 > 100 µM | SK-MEL-28 > 100 µM | HCC 2998 > 100 µM | NCI-H460 > 100 µM | LOX IMVI > 100 µM | SK-OV-3 > 100 µM | SF-268 > 100 µM | K562 > 100 µM | NCI-H522 > 100 µM | SNB-75 > 100 µM | IGROV-1 > 100 µM

COC(=O)CC(NC(=O)OCc1ccccc1)C(=O)NC(CC(=O)OC)C(=O)NC(CC(=O)OC)C(=O)NC(CC(=O)OC)C(=O)NC(CC(=O)OC)C(=O)NC(CC(=O)OC)C(=O)NN (stereo unspecified) (Cbz-D(OMe)D(OMe)D(OMe)D(OMe)D(OMe)D(OMe)-NHNH2; configuration not given here)
inactive: SW-620 > 100 µM | OVCAR-5 > 100 µM | ACHN > 100 µM | UACC-62 > 100 µM | PC-3 > 100 µM | SK-MEL-28 > 100 µM | HCC 2998 > 100 µM | NCI-H460 > 100 µM | LOX IMVI > 100 µM | SK-OV-3 > 100 µM | SF-268 > 100 µM | K562 > 100 µM | SNB-75 > 100 µM | IGROV-1 > 100 µM | MDA-MB-231 > 100 µM

Cc1ccc(S(=O)(=O)CC2(Br)CCc3ccccc3C2=O)cc1 (stereo unspecified)
inactive: SW-620 18 µM | OVCAR-5 51.1 µM | ACHN 19.8 µM | UACC-62 23 µM | PC-3 42.4 µM | CAKI-1 24.5 µM | SK-MEL-28 17.2 µM | NCI-H460 > 100 µM | NCI/ADR-RES 48.9 µM | LOX IMVI 32 µM | SK-OV-3 39.7 µM | SF-268 16.6 µM | K562 5.89 µM | NCI-H522 15.6 µM | SNB-75 29.9 µM | RXF 393 18.1 µM | IGROV-1 17.5 µM | MDA-MB-231 28 µM

CSc1ncc2c(n1)-c1ccccc1OC2N1CCCCC1 (stereo unspecified)
inactive: SW-620 40.5 µM | OVCAR-5 42 µM | ACHN 37.1 µM | UACC-62 22.4 µM | PC-3 48.2 µM | CAKI-1 21.7 µM | NCI-H460 30.4 µM | NCI/ADR-RES 40.6 µM | LOX IMVI 21.1 µM | SK-OV-3 > 100 µM | SF-268 45 µM | K562 29.5 µM | NCI-H522 18.9 µM | SNB-75 66.5 µM | RXF 393 32.1 µM | IGROV-1 40.1 µM | MDA-MB-231 23 µM

C[C@H](CCCOS(C)(=O)=O)[C@H]1CC[C@H]2[C@@H]3CC[C@@H]4C[C@H](OS(C)(=O)=O)CC[C@]4(C)[C@H]3CC[C@]12C
inactive: SW-620 56 µM | OVCAR-5 39.3 µM | ACHN 15.6 µM | UACC-62 22.8 µM | PC-3 20.6 µM | CAKI-1 11.6 µM | SK-MEL-28 > 100 µM | NCI-H460 30.5 µM | NCI/ADR-RES 26.7 µM | LOX IMVI 31.7 µM | SK-OV-3 20.3 µM | SF-268 27 µM | K562 > 100 µM | NCI-H522 29.7 µM | SNB-75 31.8 µM | RXF 393 52 µM | IGROV-1 30.1 µM | MDA-MB-231 13.8 µM

COc1ccc(C[C@H]2COC(=O)[C@@H]2Cc2ccccc2)cc1OC
inactive: SW-620 > 100 µM | OVCAR-5 > 100 µM | ACHN > 100 µM | PC-3 > 100 µM | SK-MEL-28 > 100 µM | NCI-H460 > 100 µM | NCI/ADR-RES > 100 µM | LOX IMVI > 100 µM | SK-OV-3 > 100 µM | K562 > 100 µM | IGROV-1 > 100 µM | MDA-MB-231 > 100 µM

CC(=O)Nc1oc(C)c(C)c1S(=O)(=O)c1ccc(Cl)cc1
inactive: SW-620 > 100 µM | OVCAR-5 > 100 µM | ACHN 46.2 µM | UACC-62 42 µM | PC-3 22.1 µM | SK-MEL-28 95.3 µM | HCC 2998 41.3 µM | NCI-H460 35.7 µM | NCI/ADR-RES 36 µM | SK-OV-3 52.5 µM | SF-268 33.7 µM | K562 77.1 µM | NCI-H522 37.7 µM | SNB-75 34.4 µM | RXF 393 69.7 µM | IGROV-1 70 µM

Cc1ccc(C(=O)O)c(/C=C2\Cc3ccc(C)cc3C2=O)c1
inactive: SW-620 > 100 µM | OVCAR-5 28.4 µM | ACHN 55.2 µM | UACC-62 69.2 µM | PC-3 48.8 µM | CAKI-1 44.3 µM | SK-MEL-28 78.9 µM | HCC 2998 38.9 µM | NCI-H460 56.4 µM | NCI/ADR-RES 71.8 µM | LOX IMVI 33.3 µM | SF-268 41 µM | K562 39.9 µM | NCI-H522 96.8 µM | SNB-75 34 µM | RXF 393 42.3 µM | IGROV-1 > 100 µM

COC(=O)CC(c1cn(S(=O)(=O)c2ccc(C)cc2)c2ccccc12)C1C[C@@H](C(=O)OC)N(C(=O)OC(C)(C)C)C1=O (stereo partly specified)
inactive: SW-620 12.5 µM | OVCAR-5 > 100 µM | ACHN 12.5 µM | UACC-62 55.6 µM | PC-3 47.6 µM | CAKI-1 31.7 µM | SK-MEL-28 > 100 µM | NCI-H460 26.6 µM | NCI/ADR-RES 4.89 µM | LOX IMVI 20.8 µM | SF-268 53.6 µM | K562 54.1 µM | NCI-H522 55.3 µM | SNB-75 64.1 µM | RXF 393 9.79 µM | IGROV-1 16.4 µM | MDA-MB-231 22.5 µM

CC(=O)N[C@@H](Cc1ccc(O)cn1)C(=O)NCc1ccc2c(c1)OCO2
inactive: SW-620 > 100 µM | OVCAR-5 > 100 µM | ACHN > 100 µM | UACC-62 > 100 µM | PC-3 > 100 µM | CAKI-1 > 100 µM | SK-MEL-28 > 100 µM | HCC 2998 > 100 µM | NCI-H460 > 100 µM | NCI/ADR-RES > 100 µM | LOX IMVI > 100 µM | SK-OV-3 > 100 µM | SF-268 > 100 µM | K562 > 100 µM | NCI-H522 > 100 µM | RXF 393 > 100 µM | IGROV-1 > 100 µM
